Values joined by “and” are separate entries in the source; they are usually repeats but may differ in a detail not shown here. Equal entries are not always repeated.
Key:
[1] = test system: Plasmodium falciparum; experiment: NOVARTIS: Inhibition of Plasmodium falciparum W2 (drug-resistant) proliferation in erythrocyte-based infection assay; assay type: functional, organism-based; settings: read-out: EC50
[2] = test system: Plasmodium falciparum; experiment: NOVARTIS: Inhibition of Plasmodium falciparum 3D7 (drug-susceptible) proliferation in erythrocyte-based infection assay; assay type: functional, organism-based
[3] = test system: Huh-7; experiment: NOVARTIS: Cytotoxicity against human hepatocellular carcinoma cell line (Huh7); assay type: toxicity, cell-based

| SMILES | EC50 [1] | EC50 ([2]; Plasmodium falciparum, 3D7) | CC50 ([3]; huh-7, read-out: CC50) | EC50 ([1]; Plasmodium falciparum, W2) | EC50 [2] | CC50 ([3]; huh-7) |
| --- | --- | --- | --- | --- | --- | --- |
| CCCCN1C(=Cc2cccc[n+]2C)Sc2cc(NC(C)=O)ccc21 [listing 1 of 2 here] | > 1250 nM | > 1110 nM | > 10000 nM |  |  |  |
| CCN1/C(=C/C=C/c2sc3ccccc3[n+]2CC)Sc2ccccc21 [ALAZANINE] | 1060 nM | 200 nM | 27000 nM |  |  |  |
| C=C(c1ccccc1)[n+]1ccc(/C=C/c2ccccc2O)cc1 | 289 nM |  | > 10000 nM and 92700 nM | 277 nM | 355 nM and 739 nM |  |
| C/C(C=NNC(=O)c1ccco1)=C\c1ccccc1 | 650 nM |  | > 100000 nM | > 1100 nM | > 1760 nM and 486 nM |  |
| CCN1C(=Cc2ccc3ccccc3[n+]2CC)C=Cc2sc3ccccc3c21 | 44 nM and 148 nM |  | 2970 nM and 27800 nM |  | 188 nM and 50.9 nM |  |
| CC[n+]1c(/C=C/c2ccc(N(C)C)cc2)sc2cc(NC(C)=O)ccc21 | 686 nM and 341 nM | 953 nM | > 100000 nM |  | 1500 nM |  |
| CCN1/C(=C/c2cccc[n+]2C)C=Cc2cc(C)ccc21 | 959 nM | 425 nM | > 100000 nM | 596 nM | 803 nM |  |
| CCN1/C(=C/c2[se]c3ccccc3[n+]2CC)C=Cc2cc(OC)ccc21 | 266 nM |  | 4950 nM |  | 171 nM |  |
| C=CC[n+]1c(C=C2C=CC=CN2C)sc2ccccc21 | 403 nM |  | > 100000 nM |  | 281 nM |  |
| CC[n+]1c(/C=C2\C=Cc3cc(C)ccc3N2C)ccc2cc(C)ccc21 | 961 nM |  | > 10000 nM and 32100 nM | > 1250 nM | > 1150 nM and 225 nM |  |
| O=C1NN(c2ccccc2)C(=O)/C1=C1/C(=O)N(Cc2cccc3ccccc23)c2ccccc21 | > 1250 nM and 3260 nM |  | > 100000 nM |  | > 541 nM and 5050 nM |  |
| CCCCN1C(=Cc2cccc[n+]2C)Sc2cc(NC(C)=O)ccc21 [listing 2 of 2 here] | 3670 nM |  | > 100000 nM |  | 2110 nM |  |
| CC[n+]1c(/C=C2\Sc3oc4ccccc4c3N2C)ccc2cc(C)ccc21 | 89.7 nM |  | 3590 nM and 13600 nM | 84.7 nM | 87.5 nM and 253 nM |  |
| O=C1NC(=Nc2ccccc2)S/C1=C/c1ccc(F)c(Br)c1 | 1630 nM and > 94.2 nM |  | > 100000 nM |  | > 12500 nM |  |
| CCN1C(=Cc2sc3ccc(Cl)cc3[n+]2CC)C=Cc2cc(OC)ccc21 | 91.8 nM |  | 11900 nM |  | 16.7 nM |  |
| CC[n+]1c(C=CN(C)c2ccccc2)sc2ccc(OC)cc21.[O-][Cl+3]([O-])([O-])[O-] |  | 145 nM | > 100000 nM | 255 nM |  |  |
| CCCC[n+]1c(C=C2C=Cc3ccccc3N2CC)sc2ccccc21 | 228 nM |  | 6120 nM |  | 81.5 nM |  |
| CC[n+]1c(C=CC=C2N(C)c3ccccc3C2(C)C)sc2ccccc21.[O-][Cl+3]([O-])([O-])[O-] |  | 149 nM | 1630 nM | 177 nM |  |  |
| CC[n+]1ccccc1C=Cc1ccc(N(C)C)cc1 | 1270 nM and 271 nM and 380 nM | 364 nM | 15200 nM and > 10000 nM and > 100000 nM |  | 260 nM and 350 nM |  |
| CC[n+]1c(/C=C/N2CCCc3ccccc32)ccc2ccccc21 | 246 nM |  | > 9970 nM |  | 103 nM |  |
| COc1ccc(/C=C2\SC(=O)NC2=Nc2ccccc2)cc1 | 1300 nM and 378 nM | 819 nM | > 100000 nM |  |  |  |
| Cc1ccc(/C=C2/SC(=Nc3ccccc3)NC2=O)c(C)c1 | 351 nM |  | > 100000 nM | 455 nM | 468 nM and 232 nM |  |
| CC[n+]1c(C=CC=C2N(C)c3ccccc3C2(C)C)sc2ccccc21 |  | 629 nM | > 10000 nM | 520 nM |  |  |
| CCN1/C(=C/c2sc3ccccc3[n+]2CC)Sc2ccccc21 | 248 nM |  | 32600 nM |  | 557 nM |  |
| CN1/C(=C/c2cccc[n+]2C)C=Cc2ccccc21 | 779 nM | 446 nM | > 100000 nM | 526 nM | 557 nM |  |
| CCN1C(=Cc2sc3ccccc3[n+]2C)C=Cc2cccc(C)c21 | 800 nM |  | > 10000 nM |  | 493 nM |  |
| Cc1nn(CC(O)Cn2c3ccc(Cl)cc3c3cc(Cl)ccc32)c(C)c1Br (configuration not stated) |  | 602 nM |  | 190 nM |  | No fit |
